Literature values as cited in patent publication US20240041828A1, “Combination Therapeutics Comprising Nrf2 Agonists and Antivirals for Treating Viral Infections” (The Regents of the University of California, priority 2022, published 2024).
Where a name gives a salt, the structure may show the parent alone. Read-outs that look alike come from different tables or passages of the source.

Tested on: human mammalian cells
Conditions: cited from earlier work

SMILES	concentration shown to be physiologically relevant, efficacious and non-cytotoxic	concentration shown to be physiologically relevant, efficacious and non-cytotoxic (human mammalian cells)
COC(=O)/C=C/C(=O)OC [DMF, Dimethyl fumarate]	0.1-100 μM	–
COC1=C(OC)C(=O)C(CCCCCCCCCC[P+](c2ccccc2)(c2ccccc2)c2ccccc2)=C(C)C1=O.CS(=O)(=O)[O-] [Mito-MES, 10-(4,5-dimethoxy-2-methyl-3,6-dioxo-1,4-cyclohexadienyl) decyl triphenylphosphonium methanesulfonate]	–	10-1000 nM
